Results: patent US11351184B2, “Preparation of Pulsatilla saponin B4 for injection” (priority 2017, dated 2022)

What was measured:
[1] = Compatibility test of raw materials and excipients (high temperature and illumination); assay type: physicochemical
Experimental: The content of Pulsatilla saponin B4 in the following experimental examples and examples is determined according to the following method:
Chromatographic column: C18, 250 mm×4.6 mm, 5 μm
Mobile phase: acetonitrile-water (26:74) (volume ratio)
An appropriate amount of Pulsatilla saponin B4 control sample was taken, weighed precisely, placed into a 10 ml volumetric flask, added with methanol to dissolve and dilute to the mark, the solution was shaken well and filtered to obtain a solution with 1 mg Pulsatilla saponin B4 control sample/1 ml solution.
About 25 mg of test sample was taken, weighed precisely, placed into a 25 ml volumetric flask, added with the mobile phase to dissolve and dilute to the mark, the solution was shaken well and filtered through a 0.22 μm microporous membrane, the filtrate was taken to obtain the test sample.
10 μl of the test solution was taken and injected into a liquid chromatograph, the chromatogram was recorded. The calculation formula was as follows: […]
Pulsatilla saponin B4 raw material was mixed with various excipients (water for injection, physiological saline, mannitol, lactose, sucrose and glucose) in a ratio of 1:5 (mass), and then placed under the conditions of high temperature (60° C. and 40° C.) and illumination (4500Lux±500), the samples were taken on day 0, 7 and 14 to investigate the purity of Pulsatilla saponin B4 and related substances.

[2] = Water solubility of Pulsatilla saponin B4; assay type: physicochemical
[3] = system: Cisplatin-induced Acute Kidney Injury In Mice; assay: Effect of B4 by different administration routes on cisplatin-induced acute kidney injury in mice; assay type: in vivo, ICR mouse; conditions: for BUN / Crea / TP / Urine protein: 4 days; for Reduction of effective dose to reverse cisplatin-induced renal injury, injection compared with oral administration: iv 5 mg/kg versus gavage 100 mg/kg
Experimental: Pulsatilla saponin B4 was orally and intravenously administrated in parallel, the effect of Pulsatilla saponin B4 in different administration routes on acute nephritis in cisplatin (CDDP)-stimulated mouse serum was investigated.
The drugs were all prepared into a solution with a specified concentration under “Test Method” with double distilled water and administered in the prescribed manner.
2.2 Modeling method: models were made at a dose of […] of cisplatin, the mice in normal group were injected with physiological saline intraperitoneally and the mice in other groups were injected with cisplatin intraperitoneally.
2.3 Grouping and administration: Animals were randomly divided into seven groups, 10-12 animals in each group:
(3) Dexamethasone positive group (0.5 mg/kg·body weight), dexamethasone solution was administered by gavage at a dose of 20 ml/kg·body weight;
(4) B4 high-dose group administered intravenously (5 mg/kg·body weight), B4 solution was injected into the tail vein at a dose of 5 ml/kg·body weight;
(5) B4 low-dose group administered intravenously (2.5 mg/kg·body weight), B4 solution was injected into the tail vein at a dose of 5 ml/kg·body weight;
(6) B4 high-dose group administered by gavage (100 mg/kg·body weight), B4 solution was given by gavage at a dose of 20 ml/kg·body weight;
(7) B4 low-dose group administered by gavage (50 mg/kg·body weight), B4 solution was given by gavage at a dose of 20 m/kg·body weight;
Drugs were administered continuously for 4 days from the day of modeling.
Urine was collected 0.5 hours after the last administration and urine protein was measured; blood was collected from the eyeball 1 hour after the administration, and the whole blood of the mice was placed at room temperature for 2 hours, centrifuged at 3500 rpm/min for 15 minutes, 200 μl supernatant was measured by an automatic biochemical analyzer to determine the total protein (TP), urea nitrogen (BUN) and creatinine (Cre).

[4] = day 0, raw material:excipient 1:5 (mass)
[5] = day 7, illumination (4500Lux±500)
[6] = day 14, illumination (4500Lux±500)
[7] = B4 iv (tail vein) 2.5 mg/kg, serum
[8] = B4 po (gavage) 100 mg/kg, serum
[9] = dexamethasone 0.5 mg/kg by gavage, serum 1 h after last administration

C=C(C)C1CC[C@]2(C(=O)O[C@@H]3O[C@H](CO[C@@H]4O[C@H](CO)[C@@H](O[C@@H]5O[C@@H](C)[C@H](O)[C@@H](O)[C@H]5O)[C@H](O)[C@H]4O)[C@@H](O)[C@H](O)[C@H]3O)CC[C@]3(C)[C@H](CC[C@@H]4[C@@]5(C)CC[C@H](OC6OC[C@H](O)[C@H](O)[C@H]6O[C@]6(O)O[C@@H](C)[C@H](O)[C@@H](O)[C@H]6O)[C@@](C)(CO)[C@@H]5CC[C@]43C)[C@@H]12 (stereo partly drawn) [Prescription B4, Pulsatilla saponin B4]
Purity (%) [1, 4]: 99.10%
Related substances (%) Max single impurity [1, 4]: 0.40%
Related substances (%) Total impurities [1, 4]: 0.65%
Content (%) 40° C. ([1]; day 7, 40° C.): 98.96%
Related substances (%) 40° C. Max single impurity ([1]; day 7, 40° C.): 0.40%
Related substances (%) 40° C. Total impurities ([1]; day 7, 40° C.): 0.64%
Content (%) 60° C. ([1]; day 7, 60° C.): 98.93%
Related substances (%) 60° C. Max single impurity ([1]; day 7, 60° C.): 0.41%
Related substances (%) 60° C. Total impurities ([1]; day 7, 60° C.): 0.66%
Content (%) illumination [1, 5]: 98.97%
Related substances (%) illumination Max single impurity [1, 5]: 0.40%
Related substances (%) illumination Total impurities [1, 5]: 0.64%
Content (%) 40° C. ([1]; day 14, 40° C.): 98.86%
Related substances (%) 40° C. Max single impurity ([1]; day 14, 40° C.): 0.41%
Related substances (%) 40° C. Total impurities ([1]; day 14, 40° C.): 0.63%
Content (%) 60° C. ([1]; day 14, 60° C.): 98.89%
Related substances (%) 60° C. Max single impurity ([1]; day 14, 60° C.): 0.41%
Related substances (%) 60° C. Total impurities ([1]; day 14, 60° C.): 0.64%
Content (%) illumination [1, 6]: 98.95%
Related substances (%) illumination Max single impurity [1, 6]: 0.42%
Related substances (%) illumination Total impurities [1, 6]: 0.64%
water solubility [2]: good water solubility
BUN [3, 7]: 69.26 ± 45.76 mg/dL
Crea [3, 7]: 29.27 ± 5.66 µmol/L
TP [3, 7]: 47.58 ± 2.50 g/L
Urine protein ([3]; B4 iv (tail vein) 2.5 mg/kg, urine): 1.35 ± 0.39 mg/mL
TP ([3]; B4 iv (tail vein) 5 mg/kg, serum): 46.58 ± 2.25 g/L
BUN ([3]; B4 po (gavage) 50 mg/kg, serum): 50.1 ± 5.38 mg/dL
Crea ([3]; B4 po (gavage) 50 mg/kg, serum): 30.28 ± 4.77 µmol/L
TP ([3]; B4 po (gavage) 50 mg/kg, serum): 47.69 ± 3.17 g/L
Urine protein ([3]; B4 po (gavage) 50 mg/kg, urine): 1.37 ± 0.31 mg/mL
Crea [3, 8]: 28.17 ± 3.01 µmol/L
TP [3, 8]: 48.15 ± 3.68 g/L
Urine protein ([3]; B4 po (gavage) 100 mg/kg, urine): 1.19 ± 0.25 mg/mL
Reduction of effective dose to reverse cisplatin-induced renal injury, injection compared with oral administration [3]: at least 20 times
Reduction of effective dose to reverse cisplatin-induced renal injury, injection compared with oral administration ([3]; listed as Pulsatilla saponin B4): 20 times

C[C@@H]1C[C@H]2[C@@H]3CCC4=CC(=O)C=C[C@]4(C)[C@@]3(F)[C@@H](O)C[C@]2(C)[C@@]1(O)C(=O)CO [Positive control, Dexamethasone, reference compound]
BUN [3, 9]: 42.97 ± 27.45 mg/dL
Crea [3, 9]: 30.10 ± 3.93 µmol/L
TP [3, 9]: 52.90 ± 2.50 g/L
BUN ([3]; dexamethasone 0.5 mg/kg by gavage, serum 1 h after last administration, listed as positive control): decreased significantly
Urine protein ([3]; dexamethasone 0.5 mg/kg by gavage, urine 0.5 h after last administration): 1.00 ± 0.27 mg/mL
Urine protein ([3]; dexamethasone 0.5 mg/kg by gavage, urine 0.5 h after last administration, listed as positive control): decreased significantly
